# Measured values published in patent publication US9738634B2, “Heterocyclic amide compound and herbicide” (SYNGENTA PARTICIPATIONS AG, priority 2013, dated 2017).
# Experiments:
# Format in all cases: in vivo
# fig-leafed goosefoot [1] = test: Test Example 4: weedkilling efficacy by foliar treatment; M: fig-leafed goosefoot; settings: treatment dosage 315 g/ha
# How it was run: (§1)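 Seeds are spot-sown into sterilized diluvial soil and covered with about 1.5 cm of soil. After 14 days' greenhouse growth at 25 to 30° C, plants are sprayed on stems and leaves with diluted emulsion at the stated g/ha rate, then scored at 3 weeks.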
# catchweed [2] = test: Test Example 3: weedkilling efficacy through soil treatment; O: catchweed; settings: treatment dosage 315 g/ha
# How it was run: (§2)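 Crop and weed responses were judged three weeks after a uniform surface spray of the water-diluted emulsion at the given g/ha rate. Seeds sat beneath about 1.5 cm of sterilized diluvial soil, and boxes stood in a greenhouse at 25 to 30° C.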
# green foxtail [3] = test: Test Example 3: weedkilling efficacy through soil treatment; E: green foxtail; settings: treatment dosage 315 g/ha
# How it was run: as §2
# catchweed [4] = test: Test Example 4: weedkilling efficacy by foliar treatment; O: catchweed; settings: treatment dosage 315 g/ha
# How it was run: as §1
# soybean [5] = test: Test Example 3: soil treatment, effect on crop; d: soybean; settings: treatment dosage 315 g/ha
# How it was run: as §2
# oval-leafed pondweed [6] = test: Test Example 1: weedkilling efficacy, preemergent weed treatment in the submerged state; C: oval-leafed pondweed; settings: treatment dosage 252 g/ha
# How it was run: (§3)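 Submerged pre-emergence treatment, water-surface application of compound emulsion at g/ha dosages; 4 cm flooded alluvial soil, weeds sown and 2.5-leaf rice transplanted same day. Rated after 3 weeks, greenhouse.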
# Indian mallow [7] = test: Test Example 3: weedkilling efficacy through soil treatment; K: Indian mallow; settings: treatment dosage 315 g/ha
# How it was run: as §2
# birds-eye speedwell [8] = test: Test Example 3: weedkilling efficacy through soil treatment; p: birds-eye speedwell; settings: treatment dosage 315 g/ha
# How it was run: as §2
# corn [9] = test: Test Example 3: soil treatment, effect on crop; c: corn; settings: treatment dosage 315 g/ha
# How it was run: as §2
# Italian ryegrass [10] = test: Test Example 3: weedkilling efficacy through soil treatment; I: Italian ryegrass; settings: treatment dosage 315 g/ha
# How it was run: as §2
# beet [11] = test: Test Example 3: soil treatment, effect on crop; f: beet; settings: treatment dosage 315 g/ha
# How it was run: as §2
# oval-leafed pondweed [12] = test: Test Example 2: weedkilling efficacy, growth period weed treatment in the submerged state; C: oval-leafed pondweed; settings: treatment dosage 252 g/ha
# How it was run: (§4)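 Seedlings at 1-2 leaves in 4 cm-deep submerged alluvial soil received emulsion formulations on the water surface, dosed per hectare; effects were judged 3 weeks on.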
# Indian mallow [13] = test: Test Example 4: weedkilling efficacy by foliar treatment; K: Indian mallow; settings: treatment dosage 315 g/ha
# How it was run: as §1
# Italian ryegrass [14] = test: Test Example 4: weedkilling efficacy by foliar treatment; I: Italian ryegrass; settings: treatment dosage 315 g/ha
# How it was run: as §1
# transplanted rice = test: Test Example 1: preemergent weed treatment in the submerged state, effect on crop; a: transplanted rice; settings: treatment dosage 252 g/ha
# How it was run: as §3
# crabgrass [15] = test: Test Example 4: weedkilling efficacy by foliar treatment; D: crabgrass; settings: treatment dosage 315 g/ha
# How it was run: as §1
# redroot pigweed [16] = test: Test Example 4: weedkilling efficacy by foliar treatment; L: redroot pigweed; settings: treatment dosage 315 g/ha
# How it was run: as §1
# chickweed [17] = test: Test Example 3: weedkilling efficacy through soil treatment; N: chickweed; settings: treatment dosage 315 g/ha
# How it was run: as §2
# corn [18] = test: Test Example 4: foliar treatment, effect on crop; c: corn; settings: treatment dosage 315 g/ha
# How it was run: as §1
# beet [19] = test: Test Example 4: foliar treatment, effect on crop; f: beet; settings: treatment dosage 315 g/ha
# How it was run: as §1
# fig-leafed goosefoot [20] = test: Test Example 3: weedkilling efficacy through soil treatment; M: fig-leafed goosefoot; settings: treatment dosage 315 g/ha
# How it was run: as §2
# wild oat [21] = test: Test Example 3: weedkilling efficacy through soil treatment; G: wild oat; settings: treatment dosage 315 g/ha
# How it was run: as §2
# barnyard grass [22] = test: Test Example 2: weedkilling efficacy, growth period weed treatment in the submerged state; A: barnyard grass; settings: treatment dosage 252 g/ha
# How it was run: as §4
# barnyard grass [23] = test: Test Example 1: weedkilling efficacy, preemergent weed treatment in the submerged state; A: barnyard grass; settings: treatment dosage 252 g/ha
# How it was run: as §3
# bulrush [24] = test: Test Example 1: weedkilling efficacy, preemergent weed treatment in the submerged state; B: bulrush; settings: treatment dosage 252 g/ha
# How it was run: as §3
# bulrush [25] = test: Test Example 2: weedkilling efficacy, growth period weed treatment in the submerged state; B: bulrush; settings: treatment dosage 252 g/ha
# How it was run: as §4
# directly sown rice [26] = test: Test Example 4: foliar treatment, effect on crop; b: directly sown rice; settings: treatment dosage 315 g/ha
# How it was run: as §1
# birds-eye speedwell [27] = test: Test Example 4: weedkilling efficacy by foliar treatment; p: birds-eye speedwell; settings: treatment dosage 315 g/ha
# How it was run: as §1
# wheat [28] = test: Test Example 3: soil treatment, effect on crop; e: wheat; settings: treatment dosage 315 g/ha
# How it was run: as §2
# green foxtail [29] = test: Test Example 4: weedkilling efficacy by foliar treatment; E: green foxtail; settings: treatment dosage 315 g/ha
# How it was run: as §1
# directly sown rice [30] = test: Test Example 3: soil treatment, effect on crop; b: directly sown rice; settings: treatment dosage 315 g/ha
# How it was run: as §2
# black-grass [31] = test: Test Example 3: weedkilling efficacy through soil treatment; H: black-grass; settings: treatment dosage 315 g/ha
# How it was run: as §2
# chickweed [32] = test: Test Example 4: weedkilling efficacy by foliar treatment; N: chickweed; settings: treatment dosage 315 g/ha
# How it was run: as §1
# redroot pigweed [33] = test: Test Example 3: weedkilling efficacy through soil treatment; L: redroot pigweed; settings: treatment dosage 315 g/ha
# How it was run: as §2
# wheat [34] = test: Test Example 4: foliar treatment, effect on crop; e: wheat; settings: treatment dosage 315 g/ha
# How it was run: as §1
# wild oat [35] = test: Test Example 4: weedkilling efficacy by foliar treatment; G: wild oat; settings: treatment dosage 315 g/ha
# How it was run: as §1
# soybean [36] = test: Test Example 4: foliar treatment, effect on crop; d: soybean; settings: treatment dosage 315 g/ha
# How it was run: as §1
# black-grass [37] = test: Test Example 4: weedkilling efficacy by foliar treatment; H: black-grass; settings: treatment dosage 315 g/ha
# How it was run: as §1
# crabgrass [38] = test: Test Example 3: weedkilling efficacy through soil treatment; D: crabgrass; settings: treatment dosage 315 g/ha
# How it was run: as §2
smiles,measurement,setting,value
CC1=C(c2ccccc2)C(=O)N(C(C)(C)C(=O)Nc2cncc(C(F)(F)F)c2)CO1 [B-3-03],M (fig-leafed goosefoot) weedkilling efficacy grade,fig-leafed goosefoot [1],"2 (weed kill ratio 20% or more, less than 40%)"
same,O (catchweed) weedkilling efficacy grade,catchweed [2],0 (weed kill ratio 5% or less (practically no effect))
same,E (green foxtail) weedkilling efficacy grade,green foxtail [3],"5 (weed kill ratio 90% or more, (practically complete withering))"
same,O (catchweed) weedkilling efficacy grade,catchweed [4],0 (weed kill ratio 5% or less (practically no effect))
same,d (soybean) effect on crop grade,soybean [5],0 (weed kill ratio 5% or less (practically no effect))
same,C (oval-leafed pondweed) weedkilling efficacy grade,oval-leafed pondweed [6],"5 (weed kill ratio 90% or more, (practically complete withering))"
same,K (Indian mallow) weedkilling efficacy grade,Indian mallow [7],0 (weed kill ratio 5% or less (practically no effect))
same,P (birds-eye speedwell) weedkilling efficacy grade,birds-eye speedwell [8],"3 (weed kill ratio 40% or more, less than 70%)"
same,c (corn) effect on crop grade,corn [9],"4 (weed kill ratio 70% or more, less than 90%)"
same,I (Italian ryegrass) weedkilling efficacy grade,Italian ryegrass [10],"5 (weed kill ratio 90% or more, (practically complete withering))"
same,f (beet) effect on crop grade,beet [11],"2 (weed kill ratio 20% or more, less than 40%)"
same,C (oval-leafed pondweed) weedkilling efficacy grade,oval-leafed pondweed [12],"5 (weed kill ratio 90% or more, (practically complete withering))"
same,K (Indian mallow) weedkilling efficacy grade,Indian mallow [13],"2 (weed kill ratio 20% or more, less than 40%)"
same,I (Italian ryegrass) weedkilling efficacy grade,Italian ryegrass [14],"5 (weed kill ratio 90% or more, (practically complete withering))"
same,a (transplanted rice) effect on crop grade,transplanted rice,0 (weed kill ratio 5% or less (practically no effect))
same,D (crabgrass) weedkilling efficacy grade,crabgrass [15],"5 (weed kill ratio 90% or more, (practically complete withering))"
same,L (redroot pigweed) weedkilling efficacy grade,redroot pigweed [16],"2 (weed kill ratio 20% or more, less than 40%)"
same,N (chickweed) weedkilling efficacy grade,chickweed [17],0 (weed kill ratio 5% or less (practically no effect))
same,c (corn) effect on crop grade,corn [18],"4 (weed kill ratio 70% or more, less than 90%)"
same,f (beet) effect on crop grade,beet [19],0 (weed kill ratio 5% or less (practically no effect))
same,M (fig-leafed goosefoot) weedkilling efficacy grade,fig-leafed goosefoot [20],"1 (weed kill ratio 5% or more, less than 20%)"
same,G (wild oat) weedkilling efficacy grade,wild oat [21],"4 (weed kill ratio 70% or more, less than 90%)"
same,A (barnyard grass) weedkilling efficacy grade,barnyard grass [22],"5 (weed kill ratio 90% or more, (practically complete withering))"
same,A (barnyard grass) weedkilling efficacy grade,barnyard grass [23],"5 (weed kill ratio 90% or more, (practically complete withering))"
same,B (bulrush) weedkilling efficacy grade,bulrush [24],"5 (weed kill ratio 90% or more, (practically complete withering))"
same,B (bulrush) weedkilling efficacy grade,bulrush [25],"5 (weed kill ratio 90% or more, (practically complete withering))"
same,b (directly sown rice) effect on crop grade,directly sown rice [26],"5 (weed kill ratio 90% or more, (practically complete withering))"
same,P (birds-eye speedwell) weedkilling efficacy grade,birds-eye speedwell [27],"1 (weed kill ratio 5% or more, less than 20%)"
same,e (wheat) effect on crop grade,wheat [28],0 (weed kill ratio 5% or less (practically no effect))
same,E (green foxtail) weedkilling efficacy grade,green foxtail [29],"5 (weed kill ratio 90% or more, (practically complete withering))"
same,b (directly sown rice) effect on crop grade,directly sown rice [30],"4 (weed kill ratio 70% or more, less than 90%)"
same,H (black-grass) weedkilling efficacy grade,black-grass [31],"5 (weed kill ratio 90% or more, (practically complete withering))"
same,N (chickweed) weedkilling efficacy grade,chickweed [32],"2 (weed kill ratio 20% or more, less than 40%)"
same,L (redroot pigweed) weedkilling efficacy grade,redroot pigweed [33],0 (weed kill ratio 5% or less (practically no effect))
same,e (wheat) effect on crop grade,wheat [34],0 (weed kill ratio 5% or less (practically no effect))
same,G (wild oat) weedkilling efficacy grade,wild oat [35],"4 (weed kill ratio 70% or more, less than 90%)"
same,d (soybean) effect on crop grade,soybean [36],"3 (weed kill ratio 40% or more, less than 70%)"
same,H (black-grass) weedkilling efficacy grade,black-grass [37],"5 (weed kill ratio 90% or more, (practically complete withering))"
same,D (crabgrass) weedkilling efficacy grade,crabgrass [38],"5 (weed kill ratio 90% or more, (practically complete withering))"
